US20040014648A1, “Methods for the prevention and/or the treatment of neurological disorders” (FAUST PHARMACEUTICALS, priority 2002, published 2004)

Experiments:
[1] = test system: primary cultures of neurons, isolated from the rat brain cortex; conditions: 3-NP 400 μM, 24 hours; compound at 0.1, 1 and 5 μM; FIG. 2
[2] = test system: primary cultures of neurons, isolated from the rat brain cortex; test: Neuroprotection assay: Ionomycin-evoked neuron cell death (LDH release); assay type: cell-based; conditions: FIG. 4
Method: (§1) Primary cortical neuron cultures.
Assessment of neuron cell death.
The neurons were treated in vitro with 5 μM of Ionomycin (Sigma), a calcium ionophore, in presence of 10 μM of 1-Naphthol, in absence or in presence of 5 or 10 μM of 3-methylcholanthrene (3-MC, Aldrich), an UGT inducer which allows the in situ glucuronidation of 1-Naphthol.

[3] = test system: primary cultures of neurons isolated from the rat brain cortex; test: Glutamate level determination (chemiluminescent enzymatic assay); assay type: cell-based; conditions: FIG. 5
Method: as §1
Assessment of glutamate release. Glutamate released by neurons in culture was evaluated in aliquots of the supernatants by means of a chemiluminescent enzymatic assay (Israel et al., Neurochem Int. 1993 Jan. 22(1):53-8).
The glutamate released by neurons was followed by an enzymatic assay coupled to a chemiluminescent reaction. […]

CN1C(=O)CN=C(c2ccccc2)c2cc(Cl)ccc21 [Diazepam]
protection of neurons from 3-NP-evoked cell death [1]: protects neurons from 3-NP at all tested doses

Cc1ccc2cc3c(ccc4ccccc43)c3c2c1CC3 [3-Methylcholanthrene, 3-methylcholanthrene, reference compound]
protective effect against the toxicity induced by Ionomycin ([2]; Ionomycin 5 μM, compound alone at 5 or 10 μM (lanes 5, 6)): no protective effect against the toxicity induced by Ionomycin
effect on the natural death of neurons ([2]; compound alone at 5 or 10 μM, no Ionomycin (lanes 2, 3)): no effect on the natural death of neurons
glutamate release by neurons ([3]; compound alone at 5 μM (lane 3)): have no effect on glutamate release

Oc1cccc2ccccc12 [1-Naphthol]
protective effect with in situ glucuronidation by 3-MC ([2]; Ionomycin 5 μM, compound at 10 μM plus 3-MC 5 or 10 μM): reinforces, dose dependently, the protective effect
protection of neurons from Ionomycin-evoked cell death ([2]; Ionomycin 5 μM, compound at 10 μM): protects neurons from Ionomycin-evoked cell death
glutamate release by neurons ([3]; compound at 1 μM and 10 μM (lanes 4, 7)): at both concentrations reduces the release of glutamate
glutamate release with glucuronidation by 3-MC ([3]; compound at 10 μM plus 3-MC 1 or 5 μM): reinforces, dose dependently, the decrease of glutamate
glutamate release by neurons ([3]; compound at 10 μM): reduces glutamate release
significance of the improved decrease of glutamate with 3-Methylcholanthrene ([3]; compound at 1 or 10 μM plus 3-Methylcholanthrene 5 μM (lanes 6, 9)): statistically significant at the highest dose of 3-Methylcholanthrene
